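Method: 48-hour compound exposure of cells in 96-well plates, five concentrations, linear interpolation of endpoints. GI50 = concentration required for 50% inhibition of growth.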 Active and inactive are the calls of the source. Rule as the data show it: active = GI50 up to about 1.1 µM and inactive = higher.
Key:
Assay in all cases: NCI tumour cell line growth inhibition, 48 h
TK-10 = tested on: TK-10
HCC 2998 = tested on: HCC 2998
MOLT-4 = tested on: MOLT-4
SW-620 = tested on: SW-620
UACC-257 = tested on: UACC-257
786-0 = tested on: 786-0
KM12 = tested on: KM12
NCI-H522 = tested on: NCI-H522
UO-31 = tested on: UO-31
NCI-H460 = tested on: NCI-H460
SF-295 = tested on: SF-295
OVCAR-4 = tested on: OVCAR-4
SF-268 = tested on: SF-268
BT-549 = tested on: BT-549
A549 = tested on: A549
HOP-92 = tested on: HOP-92
SR = tested on: SR
SNB-19 = tested on: SNB-19
ACHN = tested on: ACHN
MCF7 = tested on: MCF7
PC-3 = tested on: PC-3
MDA-MB-435 = tested on: MDA-MB-435
HOP-62 = tested on: HOP-62
HCT-15 = tested on: HCT-15
K562 = tested on: K562
EKVX = tested on: EKVX
SF-539 = tested on: SF-539
LOX IMVI = tested on: LOX IMVI
HCT-116 = tested on: HCT-116
Hs-578T = tested on: Hs-578T
MDA-MB-231 = tested on: MDA-MB-231
SK-MEL-2 = tested on: SK-MEL-2
RPMI-8226 = tested on: RPMI-8226
SN12C = tested on: SN12C
OVCAR-5 = tested on: OVCAR-5
SK-OV-3 = tested on: SK-OV-3
CAKI-1 = tested on: CAKI-1
SK-MEL-5 = tested on: SK-MEL-5
SNB-75 = tested on: SNB-75
NCI/ADR-RES = tested on: NCI/ADR-RES
DU-145 = tested on: DU-145
CCRF-CEM = tested on: CCRF-CEM
RXF 393 = tested on: RXF 393
OVCAR-3 = tested on: OVCAR-3
U-251 = tested on: U-251
Malme-3M = tested on: Malme-3M
HL-60 = tested on: HL-60
UACC-62 = tested on: UACC-62
COLO 205 = tested on: COLO 205
NCI-H23 = tested on: NCI-H23
OVCAR-8 = tested on: OVCAR-8
IGROV-1 = tested on: IGROV-1
SK-MEL-28 = tested on: SK-MEL-28
M14 = tested on: M14
A498 = tested on: A498
MDA-N = tested on: MDA-N
HT-29 = tested on: HT-29
T47D = tested on: T47D
NCI-H226 = tested on: NCI-H226

Question: What does the source list for `N=C(N)SCc1ccc2c(c1)Sc1ccccc1O2`?
Answer: GI50 (TK-10): 5.11 µM (inactive); GI50 (HCC 2998): 2.35 µM (inactive); GI50 (MOLT-4): 7.71 µM (inactive); GI50 (SW-620): 5.85 µM (inactive); GI50 (UACC-257): 5.82 µM (inactive); GI50 (786-0): 4.76 µM (inactive); GI50 (KM12): 5.32 µM (inactive); GI50 (NCI-H522): 1.44 µM (inactive); GI50 (UO-31): 3.37 µM (inactive); GI50 (NCI-H460): 6.79 µM (inactive); GI50 (SF-295): 10.5 µM (inactive); GI50 (OVCAR-4): 6.87 µM (inactive); GI50 (SF-268): 13.1 µM (inactive); GI50 (BT-549): 3.62 µM (inactive); GI50 (A549): 6.73 µM (inactive); GI50 (HOP-92): 6.31 µM (inactive); GI50 (SR): 5.78 µM (inactive); GI50 (SNB-19): 11.4 µM (inactive); GI50 (ACHN): 4.47 µM (inactive); GI50 (MCF7): 4.53 µM (inactive); GI50 (PC-3): 4.74 µM (inactive); GI50 (MDA-MB-435): 3.78 µM (inactive); GI50 (HOP-62): 14.1 µM (inactive); GI50 (HCT-15): 3.33 µM; GI50 (K562): 6.03 µM (inactive); GI50 (EKVX): 11.6 µM (inactive); GI50 (SF-539): 2.07 µM (inactive); GI50 (LOX IMVI): 6 µM (inactive); GI50 (HCT-116): 5.86 µM (inactive); GI50 (Hs-578T): 4.56 µM (inactive); GI50 (MDA-MB-231): 10.3 µM (inactive); GI50 (SK-MEL-2): 5.12 µM (inactive); GI50 (RPMI-8226): 8.05 µM (inactive); GI50 (SN12C): 8.95 µM (inactive); GI50 (OVCAR-5): 11.6 µM (inactive); GI50 (SK-OV-3): 12.9 µM (inactive); GI50 (CAKI-1): 6.46 µM (inactive); GI50 (SK-MEL-5): 1.57 µM (inactive); GI50 (SNB-75): 5.65 µM (inactive); GI50 (NCI/ADR-RES): 6.65 µM (inactive); GI50 (DU-145): 8.69 µM (inactive); GI50 (CCRF-CEM): 6.78 µM (inactive); GI50 (RXF 393): 3.61 µM (inactive); GI50 (OVCAR-3): 4.69 µM (inactive); GI50 (U-251): 18.4 µM (inactive); GI50 (Malme-3M): 11.1 µM (inactive); GI50 (HL-60): 4.57 µM (inactive); GI50 (UACC-62): 4.62 µM (inactive); GI50 (COLO 205): 2.36 µM (inactive); GI50 (NCI-H23): 6.5 µM (inactive); GI50 (OVCAR-8): 10.6 µM (inactive); GI50 (IGROV-1): 3.34 µM (inactive); GI50 (SK-MEL-28): 13.6 µM (inactive); GI50 (M14): 2.16 µM (inactive); GI50 (A498): 15.6 µM (inactive); GI50 (MDA-N): 3.93 µM (inactive); GI50 (HT-29): 2.9 µM (inactive); GI50 (T47D): 8.07 µM (inactive); GI50 (NCI-H226): 11.2 µM (inactive)

Question: For `CSc1c(C#N)c(O)n(-c2ccc(C)cc2)c(=O)c1C#N`, which GI50 (TK-10) is on record?
Answer: Its GI50 is > 100 µM (inactive).

Question: What about the GI50 (HCC 2998) of the same compound?
Answer: The GI50 was > 100 µM (inactive).

Question: What about the GI50 (MOLT-4) of the same compound?
Answer: The GI50 was > 100 µM (inactive).

Question: And the GI50 (SW-620)?
Answer: Its GI50 is > 100 µM (inactive).

Question: And the GI50 (UACC-257)?
Answer: Its GI50 is > 100 µM (inactive).

Question: What about the GI50 (786-0) of the same compound?
Answer: The GI50 was > 100 µM (inactive).

Question: And the GI50 (KM12)?
Answer: The GI50 was > 100 µM (inactive).

Question: What about the GI50 (NCI-H522) of the same compound?
Answer: The GI50 was > 100 µM (inactive).

Question: What about the GI50 (UO-31) of the same compound?
Answer: The GI50 was > 100 µM (inactive).

Question: What about the GI50 (NCI-H460) of the same compound?
Answer: The GI50 was > 100 µM (inactive).

Question: And the GI50 (OVCAR-4)?
Answer: Its GI50 is > 100 µM (inactive).

Question: And the GI50 (SF-268)?
Answer: The GI50 was > 100 µM (inactive).

Question: And the GI50 (BT-549)?
Answer: Its GI50 is > 100 µM (inactive).

Question: And the GI50 (A549)?
Answer: The GI50 was > 100 µM (inactive).

Question: And the GI50 (HOP-92)?
Answer: Its GI50 is > 100 µM (inactive).

Question: And the GI50 (SR)?
Answer: Its GI50 is > 100 µM (inactive).

Question: What about the GI50 (SNB-19) of the same compound?
Answer: The GI50 was > 100 µM (inactive).

Question: What about the GI50 (MCF7) of the same compound?
Answer: The GI50 was > 100 µM (inactive).

Question: And the GI50 (PC-3)?
Answer: The GI50 was > 100 µM (inactive).

Question: What about the GI50 (MDA-MB-435) of the same compound?
Answer: Its GI50 is > 100 µM (inactive).

Question: What about the GI50 (HCT-15) of the same compound?
Answer: The GI50 was over 100 µM.

Question: And the GI50 (K562)?
Answer: The GI50 was > 100 µM (inactive).

Question: And the GI50 (EKVX)?
Answer: The GI50 was > 100 µM (inactive).

Question: What about the GI50 (SF-539) of the same compound?
Answer: The GI50 was > 100 µM (inactive).

Question: And the GI50 (LOX IMVI)?
Answer: Its GI50 is > 100 µM (inactive).

Question: What about the GI50 (HCT-116) of the same compound?
Answer: The GI50 was > 100 µM (inactive).

Question: And the GI50 (Hs-578T)?
Answer: The GI50 was > 100 µM (inactive).

Question: What about the GI50 (MDA-MB-231) of the same compound?
Answer: Its GI50 is > 100 µM (inactive).

Question: What about the GI50 (SK-MEL-2) of the same compound?
Answer: Its GI50 is > 100 µM (inactive).

Question: What about the GI50 (RPMI-8226) of the same compound?
Answer: The GI50 was > 100 µM (inactive).

Question: And the GI50 (SN12C)?
Answer: Its GI50 is > 100 µM (inactive).

Question: And the GI50 (OVCAR-5)?
Answer: The GI50 was > 100 µM (inactive).

Question: And the GI50 (SK-OV-3)?
Answer: Its GI50 is > 100 µM (inactive).

Question: And the GI50 (CAKI-1)?
Answer: The GI50 was > 100 µM (inactive).

Question: What about the GI50 (SK-MEL-5) of the same compound?
Answer: The GI50 was > 100 µM (inactive).

Question: What about the GI50 (SNB-75) of the same compound?
Answer: Its GI50 is > 100 µM (inactive).

Question: And the GI50 (NCI/ADR-RES)?
Answer: The GI50 was > 100 µM (inactive).

Question: What about the GI50 (DU-145) of the same compound?
Answer: Its GI50 is > 100 µM (inactive).

Question: What about the GI50 (RXF 393) of the same compound?
Answer: The GI50 was > 100 µM (inactive).

Question: And the GI50 (OVCAR-3)?
Answer: Its GI50 is > 100 µM (inactive).

Question: And the GI50 (U-251)?
Answer: Its GI50 is > 100 µM (inactive).

Question: And the GI50 (Malme-3M)?
Answer: The GI50 was > 100 µM (inactive).

Question: What about the GI50 (HL-60) of the same compound?
Answer: The GI50 was > 100 µM (inactive).

Question: And the GI50 (UACC-62)?
Answer: The GI50 was > 100 µM (inactive).

Question: What about the GI50 (COLO 205) of the same compound?
Answer: Its GI50 is > 100 µM (inactive).

Question: And the GI50 (NCI-H23)?
Answer: The GI50 was > 100 µM (inactive).

Question: What about the GI50 (OVCAR-8) of the same compound?
Answer: Its GI50 is > 100 µM (inactive).

Question: What about the GI50 (IGROV-1) of the same compound?
Answer: The GI50 was > 100 µM (inactive).

Question: And the GI50 (SK-MEL-28)?
Answer: The GI50 was > 100 µM (inactive).

Question: What about the GI50 (M14) of the same compound?
Answer: The GI50 was > 100 µM (inactive).

Question: What about the GI50 (A498) of the same compound?
Answer: Its GI50 is > 100 µM (inactive).

Question: What about the GI50 (MDA-N) of the same compound?
Answer: Its GI50 is > 100 µM (inactive).

Question: What about the GI50 (HT-29) of the same compound?
Answer: The GI50 was > 100 µM (inactive).

Question: And the GI50 (T47D)?
Answer: The GI50 was > 100 µM (inactive).

Question: And the GI50 (NCI-H226)?
Answer: The GI50 was > 100 µM (inactive).
